Test results published in US9346812B2, “Substituted pyrrolopyrimidine compounds, compositions thereof, and methods of treatment therewith” (Signal Pharmaceutical LLC, priority 2013, dated 2016).

The compounds below were run on CAL51 cell proliferation (assay: Cell Titer Glo Proliferation Assay (CAL51)). Conditions: Homo sapiens, CAL-51; CAL51 cell proliferation, 72 h, Cell Titer Glo luminescence; read-out: Act. Level.
Assay type: cell-based, human
Method in brief: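 Viability is measured by CellTiter-Glo luminescence after 72 h of compound exposure. CAL51 cells were seeded in growth medium with 10% FBS and 2 mM glutamine, cultured overnight, then dosed with compound dilutions, vehicle held at 0.2% DMSO.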

First: CNC(=O)c1ccc(Nc2nc(OC3CCOCC3)c3c(-c4nnco4)c[nH]c3n2)c(OC)c1 [Example 174, 4-(5-(1,3,4-oxadiazol-2-yl)-4-(tetrahydro-2H-pyran-4-yloxy)-7H-pyrrolo[2,3-d]pyrimidin-2-ylamino)-3-methoxy-N-methylbenzamide]
Second: CNC(=O)c1ccc(Nc2nc(OC3CCOCC3)c3c(-c4cnccn4)c[nH]c3n2)c(OC)c1 [Example 186, 3-methoxy-N-methyl-4-(5-(pyrazin-2-yl)-4-(tetrahydro-2H-pyran-4-yloxy)-7H-pyrrolo[2,3-d]pyrimidin-2-ylamino) benzamide]
The IC50 of the first is higher: 400 to 1000 nM for the first, 100 to 400 nM for the second. The second is the more potent here.

First: CNC(=O)c1ccc(Nc2nc(OC3CCOCC3)c3c(-c4cccc([C@H](C)O)c4)c[nH]c3n2)c(OC)c1 [Example 175, (S)-4-(5-(3-(1-hydroxyethyl)phenyl)-4-(tetrahydro-2H-pyran-4-yloxy)-7H-pyrrolo[2,3-d]pyrimidin-2-ylamino)-3-methoxy-N-methylbenzamide]
Second: CNC(=O)c1ccc(Nc2nc(OC3CCOCC3)c3c(-c4cnn(C)c4)c[nH]c3n2)c(OC)c1 [Example 184, 3-methoxy-N-methyl-4-(5-(1-methyl-1H-pyrazol-4-yl)-4-(tetrahydro-2H-pyran-4-yloxy)-7H-pyrrolo[2,3-d]pyrimidin-2-ylamino)benzamide]
The IC50 of the first is higher: 100 to 400 nM for the first, under 100 nM for the second.

Cc1cc(C(=O)N(C)C)ccc1Nc1nc(O[C@H]2CCOC2)c2c(-c3ccncc3)c[nH]c2n1 [Example 176, (S)-N,N,3-trimethyl-4-(5-(pyridin-4-yl)-4-(tetrahydrofuran-3-yloxy)-7H-pyrrolo[2,3-d]pyrimidin-2-ylamino)benzamide] and CNC(=O)c1ccc(Nc2nc(OC3CCOCC3)c3c(-c4ccncc4)c[nH]c3n2)c(C(C)C)c1 [Example 200, 3-isopropyl-N-methyl-4-(5-(pyridin-4-yl)-4-(tetrahydro-2H-pyran-4-yloxy)-7H-pyrrolo[2,3-d]pyrimidin-2-ylamino) benzamide] fall in the same range of IC50: 100 to 400 nM for the first, 100 to 400 nM for the second.

First: CNC(=O)c1ccc(Nc2nc(OC)c3c(-c4cnn(C)c4)c[nH]c3n2)c(OC)c1 [Example 177, 3-methoxy-4-(4-methoxy-5-(1-methyl-1H-pyrazol-4-yl)-7H-pyrrolo [2,3-d]pyrimidin-2-ylamino)-N-methylbenzamide]
Second: CNC(=O)c1ccc(Nc2nc(OC(C)C)c3c(-c4cnn(C)c4)c[nH]c3n2)c(OC)c1 [Example 189, 4-(4-isopropoxy-5-(1-methyl-1H-pyrazol-4-yl)-7H-pyrrolo[2,3-d]pyrimidin-2-ylamino)-3-methoxy-N-methylbenzamide]
The IC50 of the first is higher: 100 to 400 nM for the first, under 100 nM for the second.

CNC(=O)c1ccc(Nc2nc(O[C@H]3CCOC3)c3c(-c4ccnc(C)c4)c[nH]c3n2)c(OC)c1 [Example 178, (S)-3-methoxy-N-methyl-4-(5-(2-methylpyridin-4-yl)-4-(tetrahydrofuran-3-yloxy)-7H-pyrrolo [2,3-d]pyrimidin-2-ylamino) benzamide] and CNC(=O)c1ccc(Nc2nc(OC(C)C)c3c(-c4ccnc(C)c4)c[nH]c3n2)c(OC)c1 [Example 201, 4-(4-isopropoxy-5-(2-methyl-pyridin-4-yl)-7H-pyrrolo[2,3-d]pyrimidin-2-ylamino)-3-methoxy-N-methylbenzamide] cannot be ordered by IC50: under 100 nM for the first, under 100 nM for the second.

CNC(=O)c1ccc(Nc2nc(OC3COC3)c3c(-c4ccc5nc(C)oc5c4)c[nH]c3n2)c(OC)c1 [Example 179, 3-methoxy-N-methyl-4-(5-(2-methylbenzo[d]oxazol-6-yl)-4-(oxetan-3-yloxy)-7H-pyrrolo[2,3-d]pyrimidin-2-ylamino)benzamide] and CNC(=O)c1ccc(Nc2nc(OC3CCC3)c3c(-c4ccc5nc(C)oc5c4)c[nH]c3n2)c(OC)c1 [Example 198, 4-(4-cyclobutoxy-5-(2-methylbenzo[d]oxazol-6-yl)-7H-pyrrolo[2,3-d]pyrimidin-2-ylamino)-3-methoxy-N-methylbenzamide] cannot be ordered by IC50: under 100 nM for the first, under 100 nM for the second.

CNC(=O)c1ccc(OC)c(Nc2nc(OC(C)C)c3c(-c4ccc5nc(C)oc5c4)c[nH]c3n2)c1 [Example 180, 3-(4-isopropoxy-5-(2-methylbenzo[d]oxazol-6-yl)-7H-pyrrolo[2,3-d]pyrimidin-2-ylamino)-4-methoxy-N-methylbenzamide] and CC[C@@H](C)Oc1nc(Nc2ccc(C(=O)NC)cc2OC)nc2[nH]cc(-c3ccc4nc(C)oc4c3)c12 [Example 203, (R)-4-(4-sec-butoxy-5-(2-methylbenzo[d]oxazol-6-yl)-7H-pyrrolo[2,3-d]pyrimidin-2-ylamino)-3-methoxy-N-methylbenzamide] fall in the same range of IC50: 100 to 400 nM for the first, 100 to 400 nM for the second.

CNC(=O)c1ccc(OC)c(Nc2nc(OC3CCOCC3)c3c(-c4ccc5nc(C)oc5c4)c[nH]c3n2)c1 [Example 181, 4-methoxy-N-methyl-3-(5-(2-methylbenzo[d]oxazol-6-yl)-4-(tetrahydro-2H-pyran-4-yloxy)-7H-pyrrolo[2,3-d]pyrimidin-2-ylamino)benzamide] and CNC(=O)c1ccc(Nc2nc(OC3CCOCC3)c3c(-c4ccc5nc(C)oc5c4)c[nH]c3n2)c(OC(F)(F)F)c1 [Example 192, N-methyl-4-(5-(2-methylbenzo[d]oxazol-6-yl)-4-(tetrahydro-2H-pyran-4-yloxy)-7H-pyrrolo[2,3-d]pyrimidin-2-ylamino)-3-(trifluoromethoxy)benzamide] fall in the same range of IC50: 100 to 400 nM for the first, 100 to 400 nM for the second.

CNC(=O)c1ccc(-c2c[nH]c3nc(Nc4ccc(C(=O)NC)cc4OC)nc(O[C@H]4CCOC4)c23)cc1 [Example 182, (S)-3-methoxy-N-methyl-4-(5-(4-(methylcarbamoyl)phenyl)-4-(tetrahydrofuran-3-yloxy)-7H-pyrrolo[2,3-d]pyrimidin-2-ylamino)benzamide] and CNC(=O)c1ccc(-c2c[nH]c3nc(Nc4ccc(C(=O)NC)cc4OC)nc(OC(C)C)c23)cc1 [Example 188, 4-(4-isopropoxy-5-(4-(methylcarbamoyl)phenyl)-7H-pyrrolo[2,3-d]pyrimidin-2-ylamino)-3-methoxy-N-methylbenzamide] cannot be ordered by IC50: under 100 nM for the first, under 100 nM for the second.

CNC(=O)c1ccc(Nc2nc(OC3CCOCC3)c3c(-c4ccc5nc(C)oc5c4)c[nH]c3n2)c(OC)n1 [Example 183, 6-methoxy-N-methyl-5-(5-(2-methylbenzo[d]oxazol-6-yl)-4-(tetrahydro-2H-pyran-4-yloxy)-7H-pyrrolo[2,3-d]pyrimidin-2-yalmino)picolinamide] and CNC(=O)c1ccc(Nc2nc(OC3CCOCC3)c3c(-c4ccc(-c5nc(C)c(C)[nH]5)cc4)c[nH]c3n2)c(OC)c1 [Example 197, 4-(5-(4-(4,5-dimethyl-1H-imidazol-2-yl)phenyl)-4-(tetrahydro-2H-pyran-4-yloxy)-7H-pyrrolo[2,3-d]pyrimidin-2-ylamino)-3-methoxy-N-methylbenzamide] fall in the same range of IC50: 100 to 400 nM for the first, 100 to 400 nM for the second.

CNC(=O)c1ccc(Nc2nc(OC(C)C)c3c(-c4ccnc(OC)c4)c[nH]c3n2)c(OC)c1 [Example 185, 4-(4-isopropoxy-5-(2-methoxypyridin-4-yl)-7H-pyrrolo [2,3-d]pyrimidin-2-ylamino)-3-methoxy-N-methylbenzamide] and CNC(=O)c1ccc(Nc2nc(OC(C)C)c3c(-c4ccnc(N)c4)c[nH]c3n2)c(OC)c1 [Example 194, 4-(5-(2-aminopyridin-4-yl)-4-isopropoxy-7H-pyrrolo[2,3-d]pyrimidin-2-ylamino)-3-methoxy-N-methylbenzamide] cannot be ordered by IC50: under 100 nM for the first, under 100 nM for the second.

Compared with CNC(=O)c1ccc(Nc2nc(OC(C)C)c3c(-c4cccc(S(C)(=O)=O)c4)c[nH]c3n2)c(OC)c1 [Example 187, 4-(4-isopropoxy-5-(3-(methylsulfonyl)phenyl)-7H-pyrrolo[2,3-d]pyrimidin-2-ylamino)-3-methoxy-N-methylbenzamide], CNC(=O)c1ccc(Nc2nc(OC(C)C)c3c(-c4ccnc(NC)c4)c[nH]c3n2)c(OC)c1 [Example 199, 4-(4-isopropoxy-5-(2-(methylamino)pyridin-4-yl)-7H-pyrrolo[2,3-d]pyrimidin-2-ylamino)-3-methoxy-N-methylbenzamide] is lower in IC50: 100 to 400 nM for the first, under 100 nM for the second. The second is the more potent here.

CNC(=O)c1ccc(Nc2nc(OC)c3c(-c4ccncc4)c[nH]c3n2)c(OC)c1 [Example 190, 3-methoxy-4-(4-methoxy-5-(pyridin-4-yl)-7H-pyrrolo[2,3-d]pyrimidin-2-ylamino)-N-methylbenzamide] and CNC(=O)c1ccc(Nc2nc(OC(C)C)c3c(-c4ccc(-c5ncc[nH]5)cc4)c[nH]c3n2)c(OC)c1 [Example 193, 4-(5-(4-(1H-imidazol-2-yl)phenyl)-4-isopropoxy-7H-pyrrolo [2,3-d]pyrimidin-2-ylamino)-3-methoxy-N-methylbenzamide] cannot be ordered by IC50: under 100 nM for the first, under 100 nM for the second.

First: CNC(=O)c1ccc(Nc2nc(OC3CCOCC3)c3c(-c4ccc(-c5nccn5C)cc4)c[nH]c3n2)c(OC)c1 [Example 195, 3-methoxy-N-methyl-4-(5-(4-(1-methyl-1H-imidazol-2-yl)phenyl)-4-(tetrahydro-2H-pyran-4-yloxy)-7H-pyrrolo[2,3-d]pyrimidin-2-ylamino)benzamide]
Second: CCOc1ccc(-c2c[nH]c3nc(Nc4ccc(C(=O)NC)cc4OC)nc(OC(C)C)c23)cn1 [Example 196, 4-(5-(6-ethoxypyridin-3-yl)-4-isopropoxy-7H-pyrrolo[2,3-d]pyrimidin-2-ylamino)-3-methoxy-N-methylbenzamide]
The IC50 of the first is higher: 1000 to 10000 nM for the first, 100 to 400 nM for the second.

First: CNC(=O)c1ccc(Nc2nc(NC(C)C)c3c(-c4ccc5nc(C)oc5c4)c[nH]c3n2)c(OC)c1 [Example 202, 4-(4-(isopropylamino)-5-(2-methylbenzo[d]oxazol-6-yl)-7H-pyrrolo[2,3-d]pyrimidin-2-ylamino)-3-methoxy-N-methylbenzamide]
Second: CC[C@H](C)Oc1nc(Nc2ccc(C(=O)NC)cc2OC)nc2[nH]cc(-c3ccc4nc(C)oc4c3)c12 [Example 204, (S)-4-(4-sec-butoxy-5-(2-methylbenzo[d]oxazol-6-yl)-7H-pyrrolo[2,3-d]pyrimidin-2-ylamino)-3-methoxy-N-methylbenzamide]
The IC50 of the first is lower: under 100 nM for the first, 100 to 400 nM for the second. The first is the more potent here.
